Where two headings read alike, the source gives them in different places.
How the values were obtained:
[1] = system: HEK-293 cells; assay: Cytotoxicity against HEK-293 cells (MTT); assay type: cell-based
Method: (§1) Mammalian lineage cells were used to assess the cytotoxicity of the tested compounds. LLC-MK2, HEK-293, and RAW-264 cells (ATCC) were cultured in Dulbecco’s Modified Eagle’s Medium (DMEM) supplemented with 5% fetal bovine serum (FBS) and incubated at 37 °C in 5% CO2, with passages every 4–5 days. Cells were detached from the monolayer using a solution containing 0.25% w/v trypsin and 0.04% EDTA.
In a 96-well transparent plate, a suspension of 1 × 10^4 HEK-293 cells (ATCC) in DMEM medium supplemented with 10% FBS was added. Cells were incubated at 37 °C (5% CO2) for 20 h and then washed with PBS to remove nonadherent cells. The cells were treated with serial dilutions of the hybrids in triplicate (125–0.2 μM), prediluted in DMEM containing 10% FBS. The experiment included untreated controls, vehicle (0.2% v/v DMSO), and a blank (no added cells). […] Then, 20 μL of 3.0 mM MTT saline was added, followed by an additional 1.5 h of incubation. The supernatant was removed, and the MTT formazan crystals were dissolved by adding 120 μL of DMSO per well. After incubating for 1.5 h in the dark at 37 °C, the absorbance was measured at 570 nm using a plate reader.

[2] = system: bloodstream trypomastigotes of T. b. brucei; assay: Trypanocidal activity against T. brucei brucei bloodstream (MTS); assay type: cell-based, Trypanosoma brucei brucei
Method: In a transparent 96-well plate, the parasites were incubated for 48 h at a concentration of 5 × 10^4 parasites per well, for 24 h, a concentration of 10 × 10^5 parasites per well was used in Hirumi’s Modified Iscove’s (HMI-9) medium supplemented with 10% FBS and a final 100 μL/well volume. Treatment was carried out using serial dilutions of the compounds (100–0.02 μM) and fexinidazole as the reference drug, both in triplicate. Triplicates of untreated parasites (live control), parasites treated with DMSO 0.2% v/v (vehicle), and wells without parasites (blank control) served as experimental controls. After incubation, 20 μL of MTS solution (5% PMS) was added, and the sample was incubated for another 2 h. Once the plate was visibly stained–due to the soluble formazan salt produced by the action of viable parasites from the reduction of MTS–the absorbance was measured at 490 nm using a plate reader.

[3] = Cytotoxicity against LLC-MK2 cells (MTT); assay type: cell-based; details: rhesus monkey
Method: as §1
In a flat 96-well plate, a suspension of 1 × 10^4 LLC-MK2 cells (ATCC) in DMEM supplemented with 2% FBS was added. Cells were incubated at 37 °C (5% CO2) for 20 h, then washed with phosphate-buffered saline (PBS) to remove nonadherent cells. Cells were treated with serial dilutions (200–2 μM) of compounds in triplicate, prediluted in DMEM with 2% FBS. Untreated, vehicle (0.2% v/v DMSO), and blank (no cells added) controls were included. After 120 h of incubation, the supernatant was removed, the cell monolayer washed with PBS, and the culture medium refreshed. Then, 20 μL of a 3.0 mM MTT salt solution was added, followed by two additional hours of incubation. The supernatant was removed again, and the MTT formazan crystals were dissolved by adding 120 μL of DMSO per well. After 1.5 h of dark incubation at 37 °C to dissolve the crystals, the absorbance was measured at 570 nm using a plate reader.

[4] = system: RAW-264.7 cells; assay: Cytotoxicity against RAW-264.7 cells (MTT); assay type: cell-based
Method: as §1
In a 96-well transparent plate, a suspension of 1 × 10^4 RAW-264.7 cells (ATCC) in Roswell Park Memorial Institute (RPMI) medium supplemented with 10% FBS was added. Cells were incubated at 37 °C (5% CO2) for 20 h, then washed with PBS to remove nonadherent cells. Cells were treated with serial dilutions of the hybrids in triplicate (125–0.2 μM), prediluted in RPMI supplemented with 10% FBS. Controls included untreated samples, vehicle (0.2% v/v DMSO), and blank wells (no cells). […] Then, 20 μL of 3.0 mM MTT saline was added, followed by an additional 1.5 h of incubation. The supernatant was removed again, and the MTT formazan crystals were dissolved by adding 120 μL of DMSO per well. After incubating for 1.5 h in the dark at 37 °C to dissolve the crystals, absorbance was measured at 570 nm using a plate reader.

[5] = system: amastigotes of T. cruzi (Tulahuen C2C4 LacZ strain); assay: Trypanocidal activity against T. cruzi amastigotes (CPRG, infected LLC-MK2); assay type: cell-based, Trypanosoma cruzi; details: intracellular amastigotes in LLC-MK2, 120 h; for IC50: Trypanosoma cruzi, TULAHUEN, read-out: Activity against Amastigotes of T. cruzi (Tulahuen C2C4lacZ) IC50
Method: The antiparasitic activity assays used amastigotes of the Tulahuen C2C4-LacZ strain of T. cruzi. Amastigotes and trypomastigotes were cultured by successive reinfections in LLC-MK2 cell monolayers in DMEM supplemented with 5% FBS and incubated at 37 °C with 5% CO2. Trypomastigotes were collected from the culture supernatant between days 5 and 10 after infection and separated from nonadhered cells by differential centrifugation.
In a flat 96-well plate, a suspension of 1 × 10^4 LLC-MK2 cells (ATCC) in DMEM supplemented with 2% FBS was added. Cells were incubated at 37 °C with 5% CO2 for 4 h to promote adhesion, then washed with PBS to remove nonadherent cells. A suspension containing 1.5 × 10^5 T. cruzi trypomastigote forms of the Tulahuen C2C4 LacZ strain was added to the cells, followed by incubation at 37 °C with 5% CO2 for 20 h to establish infection. Noninternalized parasites were removed with three successive PBS washes, then treatment with serial dilutions (50–0.08 μM) of compounds in triplicate, prediluted in DMEM with 2% FBS. Controls included untreated cells, vehicle (0.2% v/v DMSO), and blank (no parasite added). Benznidazole, in serial dilutions, served as a positive control. After 5 days (120 h), 30 μL of a 0.5 mM CPRG solution in PBS was added along with 0.9% v/v Igepal CA-630. After a 2h incubation, absorbance was measured at 570 nm using a plate reader.

[6] = system: amastigotes of T. cruzi (Tulahuen C2C4 LacZ strain); assay: as above; assay type: cell-based, Trypanosoma cruzi
[7] = system: Chagas disease; details: chronic phase of Chagas disease; cited from earlier work
[8] = Homo sapiens, HEK293, 48 h; read-out: HEK-293 48 h IC50
[9] = Trypanosoma brucei, 48 h; read-out: T. b. brucei 48 h IC50
[10] = Mus musculus, RAW264.7, 48 h; read-out: RAW-264.7 48 h IC50
[11] = Homo sapiens, HEK293, 48 h, read-out: HEK-293 48 h IC50
[12] = Trypanosoma brucei, 48 h, read-out: T. b. brucei 48 h IC50
[13] = Mus musculus, RAW264.7, 48 h, read-out: RAW-264.7 48 h IC50

Structure (SMILES) | IC50 [1, 8] [µM] | SI (HEK-293) = (IC50 HEK-293)/(IC50 T. brucei brucei) [2] | SI (RAW-264.7) = (IC50 RAW-264.7)/(IC50 T. brucei brucei) [2] | IC50 [2, 9] [µM] | IC50 at 120 h [3] [µM] | IC50 [4, 10] [µM] | IC50 [5] [nM] | Activity against Amastigotes of T. cruzi (Tulahuen C2C4lacZ) IC50 [5] | SI (LLC-MK2) = (IC50 LLC-MK2)/(IC50 T. cruzi) [6] | IC50 at 120 h ([3]; LLC-MK2 cells) [µM] | cure rate [7] | IC50 [1, 11] [µM] | IC50 [2, 12] [µM] | IC50 [4, 13] [µM]
O=[N+]([O-])c1nccn1CCCCCCCCCCCCn1ccnc1[N+](=O)[O-] [Compound 11, 1,12-Bis(2-nitro-1H-imidazol-1-yl)dodecane] | 102 ± 8.54 | 57.01 | >69.83 | 1.79 ± 0.63 | 52.4 ± 4.13 | > 125 | 610 ± 130 | submicromolar range | 85.88 |  |  |  |  | 
O=[N+]([O-])c1nccn1CCCCCn1ccnc1[N+](=O)[O-] [Compound 7, 1,5-Bis(2-nitro-1H-imidazol-1-yl)pentane] | > 125 | >12.42 | >12.42 | 10.1 ± 2.47 | > 200 | > 125 | 1380 ± 240 |  | >144.9 |  |  |  |  | 
O=[N+]([O-])c1nccn1CCCCn1ccnc1[N+](=O)[O-] [Compound 6, 1,4-Bis(2-nitro-1H-imidazol-1-yl)butane] | > 125 | >5.02 | >5.02 | 24.9 ± 7.89 | > 200 | > 125 | 2660 ± 780 |  | >75.18 |  |  |  |  | 
O=C(Cn1ccnc1[N+](=O)[O-])NCc1ccccc1 [Benznidazole, benznidazole, reference compound] |  |  |  |  |  |  | 1500 ± 330 |  | >133.33 | > 200 | less than 20% |  |  | 
O=[N+]([O-])c1nccn1CCCCCCn1ccnc1[N+](=O)[O-] [Compound 8, 1,6-Bis(2-nitro-1H-imidazol-1-yl)hexane] | 87.4 ± 1.2 | 16.27 | >23.27 | 5.37 ± 3.15 | > 200 | > 125 | 590 ± 10 | submicromolar range | >338.98 |  |  |  |  | 
O=[N+]([O-])c1nccn1CCn1ccnc1[N+](=O)[O-] [Compound 4, 1,2-Bis(2-nitro-1H-imidazol-1-yl)ethane] |  | >5.83 | >5.83 |  | > 200 |  | 9130 ± 930 |  | >21.90 |  |  | > 125 | 21.4 ± 1.15 | > 125
O=[N+]([O-])c1ncc[nH]1 [Azomycin (3), 2-nitro-1H-imidazole, reference compound] |  |  |  |  | > 500 |  | 5740 ± 1890 |  | >87.10 |  |  |  |  | 
O=[N+]([O-])c1nccn1CCCn1ccnc1[N+](=O)[O-] [Compound 5, 1,3-Bis(2-nitro-1H-imidazol-1-yl)propane] |  |  |  |  | > 200 |  | 3200 ± 580 |  | >62.50 |  |  | > 125 | 16.4 ± 2.65 | > 125
CSc1ccc(OCc2ncc([N+](=O)[O-])n2C)cc1 [Fexinidazole, fexinidazole, reference compound] |  |  |  | 1.2 ± 0.51 |  |  |  |  |  |  |  |  |  | 
O=[N+]([O-])c1nccn1CCCCCCCCn1ccnc1[N+](=O)[O-] [Compound 9, 1,8-Bis(2-nitro-1H-imidazol-1-yl)octane] | 22.3 ± 1.08 | 2.79 | 8.98 | 7.98 ± 3.12 | > 100 | 71.7 ± 3.67 | 1190 ± 310 |  | >84.03 |  |  |  |  | 
CC1CS(=O)(=O)CCN1/N=C/c1ccc([N+](=O)[O-])o1 (centres unmarked) [nifurtimox] |  |  |  |  |  |  |  |  |  |  | less than 20% |  |  | 
O=[N+]([O-])c1nccn1CCCCCCCCCCn1ccnc1[N+](=O)[O-] [Compound 10, 1,10-Bis(2-nitro-1H-imidazol-1-yl)decane] | 35.1 ± 5.31 | 1.67 | 4.67 | 21 ± 1.9 | > 100 | 98.4 ± 9.39 | 480 ± 110 | submicromolar range | >208.33 |  |  |  |  | 

From PMC12809571, “Contribution to the Chemotherapy of Human Trypanosomiasis: Design, Synthesis, and Biological Evaluation of Dimeric 2‑Nitroimidazoles against Trypanosoma cruzi Amastigotes and Bloodstream Trypanosoma brucei” (ACS Omega, 2025)
